Four molecules from ChEMBL document CHEMBL4390692, “Enzymatic activation of indolequinone-substituted 5-fluorodeoxyuridine prodrugs in hypoxic cells” (Bioorg Med Chem Lett, 2019) can be followed below.

The target of data set [1] is T1, NADPH--cytochrome P450 reductase (Homo sapiens, UniProt P16435).
T1 sequence (P16435 whole entry): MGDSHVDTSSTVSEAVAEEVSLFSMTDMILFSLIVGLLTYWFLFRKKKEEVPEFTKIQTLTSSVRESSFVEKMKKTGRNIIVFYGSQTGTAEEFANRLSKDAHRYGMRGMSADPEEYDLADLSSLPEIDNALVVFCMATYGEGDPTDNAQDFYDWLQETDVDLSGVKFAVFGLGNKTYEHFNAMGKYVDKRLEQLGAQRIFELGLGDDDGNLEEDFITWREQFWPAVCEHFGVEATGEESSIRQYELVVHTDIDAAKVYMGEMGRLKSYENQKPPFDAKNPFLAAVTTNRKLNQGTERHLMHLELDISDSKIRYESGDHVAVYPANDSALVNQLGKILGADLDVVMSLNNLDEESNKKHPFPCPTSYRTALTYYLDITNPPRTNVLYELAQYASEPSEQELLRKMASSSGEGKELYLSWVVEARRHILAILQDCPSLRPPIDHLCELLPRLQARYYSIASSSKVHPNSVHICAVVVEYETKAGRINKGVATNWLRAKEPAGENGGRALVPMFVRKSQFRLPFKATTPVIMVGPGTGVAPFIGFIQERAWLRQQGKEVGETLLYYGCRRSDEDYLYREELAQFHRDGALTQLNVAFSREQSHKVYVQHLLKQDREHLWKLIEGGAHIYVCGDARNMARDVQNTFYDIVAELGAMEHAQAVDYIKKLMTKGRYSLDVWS
The data set can be described thus: Prodrug activation in pH 7.4 PBS buffer assessed as 3.3 ug/mL NADPH-cytochrome P450 reductase (unknown origin) mediated FdUrd formation at 0.62 mM in the presence of beta-NADPH measured after 2 hrs under aerobic condition by reverse phase HPLC. Conditions: pH 7.4, 2 h, 620 µM. Type of data set: ADME.

Data set [2] deals with A549. The data set is described as follows: Cytotoxicity against human A549 cells at 1 to 50 uM treated 24 hrs post hypoxic condition measured after 72 hrs under hypoxic condition by WST-8 assay relative to control. The format is functional, cell-based. A general note: Tetrazolium dyes change colour on reduction, which living cells bring about.
In data set [3] the test system is A549. The data set is described as follows: Cytotoxicity against human A549 cells at 1 uM treated 24 hrs post aerobic condition and measured after 72 hrs under aerobic condition by WST-8 assay relative to control. The format is cell-based. The note with it: a549, 72 h.
The target of data set [4] is T1, NADPH--cytochrome P450 reductase. The data set is described as follows: Prodrug activation in pH 7.4 PBS buffer assessed as 3.3 ug/mL NADPH-cytochrome P450 reductase (unknown origin) mediated FdUrd formation at 0.62 mM in the presence of beta-NADPH measured after 2 hrs under hypoxic condition by reverse phase HPLC relative to control. Type of data set: ADME. The note with it: pH 7.4, 2 h, 620 µM.

Substrate in data set [5]: COC1=CC(=O)c2c(c(Cn3c(=O)c(F)cn([C@H]4C[C@H](O)[C@@H](CO)O4)c3=O)c(C)n2C)C1=O
The data set can be described thus: Prodrug conversion in pH 7.4 PBS buffer assessed as NADPH-cytochrome P450 reductase (unknown origin) mediated FdUrd release by measuring Km at 0.62 mM in the presence of beta-NADPH measured after 2 hrs under hypoxic condition by Lineweaver-Burk plot analysis. The format is ADME, Homo sapiens.

Substrate in data set [6]: COC1=CC(=O)c2c(c(Cn3c(=O)c(F)cn([C@H]4C[C@H](O)[C@@H](CO)O4)c3=O)c(C)n2C)C1=O
The data set can be described thus: Prodrug conversion in pH 7.4 PBS buffer assessed as NADPH-cytochrome P450 reductase (unknown origin) mediated FdUrd release by measuring Km at 0.62 mM in the presence of beta-NADPH measured after 2 hrs under aerobic condition by Lineweaver-Burk plot analysis. Type of data set: ADME, Homo sapiens.

The source made the active and inactive calls. The calls are words filed in the database; no cut-off is given here.

In the case of `COC1=CC(=O)c2c(c(Cn3c(=O)c(F)cn([C@H]4C[C@H](O)[C@@H](CO)O4)c3=O)c(C)n2C)C1=O`, the Drug metabolism result in data set [1] was “Metabolite_Notdetected”. Also, the result in the data set with A549 [2] was Active. For the same molecule, in the data set with A549 [3], the Activity entry is recorded as “Non-Toxic”.

As for `CNC1=CC(=O)c2c(c(Cn3c(=O)c(F)cn([C@H]4C[C@H](O)[C@@H](CO)O4)c3=O)c(C)n2C)C1=O`, in data set [4], the Drug metabolism result was “Metabolite_Notdetected”.

Take `O=c1[nH]c(=O)n([C@H]2C[C@H](O)[C@@H](CO)O2)cc1F` [FLOXURIDINE]: the Activity entry in the data set on A549 [3] is on record as “Toxic”.

B1: NADPH--cytochrome P450 reductase (Homo sapiens) (protein)
chain: T1 sequence (P16435 whole entry)
Turning to B1, in data set [5], the Michaelis-Menten constant (Km) came to 1000 µM and the maximal velocity (Vmax) came out at 3.4e-06 µmol/min. Besides, in data set [6], the Michaelis constant (Km) was 1500 µM and the Vmax is 2e-07 µmol/min.

As usually defined, the Km is the concentration of substrate that gives half-maximal velocity. For orientation: Vmax means the top rate of the reaction or transport when substrate is in excess.
